# Source: US10543212B2, “Substituted amines for treating cardiac diseases” (Cardurion Pharmaceuticals, LLC, priority 2017, dated 2020)
# Molecular target: T1, Full-length, GST-tagged, human CaMKIIδ (Homo sapiens, UniProt Q13557)
# T1 construct: Full-Length, Glutathione-S-Transferase(GST)-Tagged, Human CaMKIIδ was purchased from Carna Biosciences; purchased Carna Biosciences 02-111
# Experiment: CaMKIIδ binding assay (TR-FRET with BODIPY-labeled probe ligand)
# Details: CaMKIIδ binding assay, results of Table 2
# Procedure, shortened: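 TR-FRET probe-displacement binding: 0.5 nM GST-CaMKIIδ with 10 μg/mL calmodulin, 1 mM CaCl2, 0.21 nM Tb-anti-GST Ab and 300 nM BODIPY probe in HEPES pH 7.6 buffer. Eight-point 4-fold dilutions, 1 hr at room temperature. IC50 from logistic fit; 100% inhibition defined by 3 μM parent compound.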
# T1 sequence (Q13557 1-478 isoform Q13557-12): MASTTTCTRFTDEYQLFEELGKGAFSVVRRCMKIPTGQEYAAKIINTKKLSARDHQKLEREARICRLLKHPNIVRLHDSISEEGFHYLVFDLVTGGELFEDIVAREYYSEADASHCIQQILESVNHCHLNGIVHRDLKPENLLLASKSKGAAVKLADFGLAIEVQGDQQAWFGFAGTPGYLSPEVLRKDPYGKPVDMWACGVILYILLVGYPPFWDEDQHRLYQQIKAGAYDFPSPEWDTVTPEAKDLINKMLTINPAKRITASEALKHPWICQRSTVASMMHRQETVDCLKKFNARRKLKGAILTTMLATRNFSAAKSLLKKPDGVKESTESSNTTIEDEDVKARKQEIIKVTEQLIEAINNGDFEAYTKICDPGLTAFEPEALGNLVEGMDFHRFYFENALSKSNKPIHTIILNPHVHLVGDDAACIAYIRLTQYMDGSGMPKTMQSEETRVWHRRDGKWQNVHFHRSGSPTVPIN
row,SMILES,IC50
1,"CCN(C)CC(=O)N1CCc2cc(Nc3ncc(-c4ccc(Cl)c(O[C@@H](C)Cn5cnnn5)c4)cn3)c(OC)cc2C1 [Example 514, (S)-1-(6-((5-(3-((1-(1H-tetrazol-1-yl)propan-2-yl)oxy)-4-chlorophenyl)pyrimidin-2-yl)amino)-7-methoxy-3,4-dihydroisoquinolin-2(1H)-yl)-2-(ethyl(methyl)amino)ethan-1-one]",< 10 nM
2,"CCc1cc2c(cc1Nc1ncc(-c3ccc(Cl)c(O[C@@H](C)Cn4cnnn4)c3)cn1)CN(C1COC1)CC2 [Example 515, (S)-N-(5-(3-((1-(1H-tetrazol-1-yl)propan-2-yl)oxy)-4-chlorophenyl)pyrimidin-2-yl)-6-ethyl-2-(oxetan-3-yl)-1,2,3,4-tetrahydroisoquinolin-7-amine]",10 to 100 nM
3,"CCc1cc2c(cc1Nc1ncc(-c3ccc(C#N)c(O[C@@H](C)Cn4cnnn4)c3)cn1)CN(C1COC1)CC2 [Example 516, (S)-2-((1-(1H-tetrazol-1-yl)propan-2-yl)oxy)-4-(2-((6-ethyl-2-(oxetan-3-yl)-1,2,3,4-tetrahydroisoquinolin-7-yl)amino)pyrimidin-5-yl)benzonitrile]",10 to 100 nM
4,"COc1cnc(C2CCOCC2)cc1Nc1ncc(-c2ccc(Cl)c(O[C@@H](C)Cn3cnnn3)c2)cn1 [Example 517, (S)-5-(3-((1-(1H-tetrazol-1-yl)propan-2-yl)oxy)-4-chlorophenyl)-N-(5-methoxy-2-(tetrahydro-2H-pyran-4-yl)pyridin-4-yl)pyrimidin-2-amine]",10 to 100 nM
5,"COCCN1CCc2cc(OC)c(Nc3ncc(-c4ccc(Cl)c(O[C@@H](C)Cn5cnnn5)c4)cn3)cc2C1 [Example 518, (S)-N-(5-(3-((1-(1H-tetrazol-1-yl)propan-2-yl)oxy)-4-chlorophenyl)pyrimidin-2-yl)-6-methoxy-2-(2-methoxyethyl)-1,2,3,4-tetrahydroisoquinolin-7-amine]",< 10 nM
6,"COc1cc2c(cc1Nc1ncc(-c3ccc(Cl)c(O[C@@H](C)Cn4cnnn4)c3)cn1)CN(C(=O)COC(C)=O)CC2 [Example 519, (S)-2-(7-((5-(3-((1-(1H-tetrazol-1-yl)propan-2-yl)oxy)-4-chlorophenyl)pyrimidin-2-yl)amino)-6-methoxy-3,4-dihydroisoquinolin-2(1H)-yl)-2-oxoethyl acetate]",10 to 100 nM
7,"COc1cc2c(cc1Nc1ncc(-c3ccc(Cl)c(O[C@@H](C)Cn4cnnn4)c3)cn1)CN(C(=O)C(C)(C)OC(C)=O)CC2 [Example 520, (S)-1-(7-((5-(3-((1-(1H-tetrazol-1-yl)propan-2-yl)oxy)-4-chlorophenyl)pyrimidin-2-yl)amino)-6-methoxy-3,4-dihydroisoquinolin-2(1H)-yl)-2-methyl-1-oxopropan-2-yl acetate]",≥ 100 nM
8,"COc1cc2c(cc1Nc1ncc(-c3ccc(Cl)c(O[C@@H](C)Cn4cnnn4)c3)cn1)CN(C(=O)C(C)(C)O)CC2 [Example 521, (S)-1-(7-((5-(3-((1-(1H-tetrazol-1-yl)propan-2-yl)oxy)-4-chlorophenyl)pyrimidin-2-yl)amino)-6-methoxy-3,4-dihydroisoquinolin-2(1H)-yl)-2-hydroxy-2-methylpropan-1-one]",10 to 100 nM
9,"COc1cc2c(cc1Nc1ncc(-c3ccc(Cl)c(O[C@@H](C)Cn4cnnn4)c3)cn1)CN(C(=O)CO)CC2 [Example 522, (S)-1-(7-((5-(3-((1-(1H-tetrazol-1-yl)propan-2-yl)oxy)-4-chlorophenyl)pyrimidin-2-yl)amino)-6-methoxy-3,4-dihydroisoquinolin-2(1H)-yl)-2-hydroxyethan-1-one]",10 to 100 nM
10,"Cc1ncc(N2CC(O)C2)cc1Nc1ncc(-c2ccc(Cl)c(O[C@@H](C)Cn3cnnn3)c2)cn1 [Example 523, (S)-1-(5-((5-(3-((1-(1H-tetrazol-1-yl)propan-2-yl)oxy)-4-chlorophenyl)pyrimidin-2-yl)amino)-6-methylpyridin-3-yl)azetidin-3-ol]",10 to 100 nM
11,"C[C@@H](Cn1cnnn1)Oc1cc(-c2cnc(Nc3cc4c(cc3C3CC3)CCN(C3COC3)C4)nc2)ccc1C#N [Example 524, (S)-2-((1-(1H-tetrazol-1-yl)propan-2-yl)oxy)-4-(2-((6-cyclopropyl-2-(oxetan-3-yl)-1,2,3,4-tetrahydroisoquinolin-7-yl)amino)pyrimidin-5-yl)benzonitrile]",10 to 100 nM
12,"C[C@@H](Cn1cnnn1)Oc1cc(-c2cnc(Nc3cc4c(cc3Cl)CCN(C(=O)C(F)(F)F)CC4)nc2)ccc1C#N [Example 525, (S)-2-((1-(1H-tetrazol-1-yl)propan-2-yl)oxy)-4-(2-((8-chloro-3-(2,2,2-trifluoroacetyl)-2,3,4,5-tetrahydro-1H-benzo[d]azepin-7-yl)amino)pyrimidin-5-yl)benzonitrile]",10 to 100 nM
13,"COC(=O)c1ccc(OC)c(Nc2ncc(-c3ccc(Cl)c(O[C@@H](C)Cn4cnnn4)c3)cn2)c1 [Example 526, methyl (S)-3-((5-(3-((1-(1H-tetrazol-1-yl)propan-2-yl)oxy)-4-chlorophenyl)pyrimidin-2-yl)amino)-4-methoxybenzoate]",10 to 100 nM
14,"C[C@@H](Cn1cnnn1)Oc1cc(-c2cnc(Nc3cc4c(cc3Cl)CCNCC4)nc2)ccc1C#N [Example 527, (S)-2-((1-(1H-tetrazol-1-yl)propan-2-yl)oxy)-4-(2-((8-chloro-2,3,4,5-tetrahydro-1H-benzo[d]azepin-7-yl)amino)pyrimidin-5-yl)benzonitrile]",< 10 nM
15,"COc1cc(C2CCN(C3COC3)CC2)c(C)cc1Nc1ncc(-c2ccc(C#N)c(O[C@@H](C)Cn3cnnn3)c2)cn1 [Example 528, (S)-2-((1-(1H-tetrazol-1-yl)propan-2-yl)oxy)-4-(2-((2-methoxy-5-methyl-4-(1-(oxetan-3-yl)piperidin-4-yl)phenyl)amino)pyrimidin-5-yl)benzonitrile]",< 10 nM
16,"COc1cc(C2CCN(C3COC3)CC2)c(C)cc1Nc1ncc(-c2ccc(Cl)c(O[C@@H](C)Cn3cnnn3)c2)cn1 [Example 529, (S)-5-(3-((1-(1H-tetrazol-1-yl)propan-2-yl)oxy)-4-chlorophenyl)-N-(2-methoxy-5-methyl-4-(1-(oxetan-3-yl)piperidin-4-yl)phenyl)pyrimidin-2-amine]",< 10 nM
17,"COc1cc(C2=CCN(C3COC3)CC2)c(C)cc1Nc1ncc(-c2ccc(C#N)c(O[C@@H](C)Cn3cnnn3)c2)cn1 [Example 530, (S)-2-((1-(1H-tetrazol-1-yl)propan-2-yl)oxy)-4-(2-((2-methoxy-5-methyl-4-(1-(oxetan-3-yl)-1,2,3,6-tetrahydropyridin-4-yl)phenyl)amino)pyrimidin-5-yl)benzonitrile]",< 10 nM
18,"COc1cc(C2=CCN(C3COC3)CC2)c(C)cc1Nc1ncc(-c2ccc(Cl)c(O[C@@H](C)Cn3cnnn3)c2)cn1 [Example 531, (S)-5-(3-((1-(1H-tetrazol-1-yl)propan-2-yl)oxy)-4-chlorophenyl)-N-(2-methoxy-5-methyl-4-(1-(oxetan-3-yl)-1,2,3,6-tetrahydropyridin-4-yl)phenyl)pyrimidin-2-amine]",10 to 100 nM
19,"COc1ccc(N2CCNCC2)cc1Nc1ncc(-c2ccc(Cl)c(O[C@@H](C)Cn3cnnn3)c2)cn1 [Example 533, (S)-5-(3-((1-(1H-tetrazol-1-yl)propan-2-yl)oxy)-4-chlorophenyl)-N-(2-methoxy-5-(piperazin-1-yl)phenyl)pyrimidin-2-amine]",< 10 nM
20,"COc1cc(N2CCC(N3CCOCC3)CC2)ccc1Nc1ncc(-c2cc(O[C@@H](C)Cn3cnnn3)c(Cl)cn2)cn1 [Example 534, (S)-5-(4-((1-(1H-tetrazol-1-yl)propan-2-yl)oxy)-5-chloropyridin-2-yl)-N-(2-methoxy-4-(4-morpholinopiperidin-1-yl)phenyl)pyrimidin-2-amine]",≥ 100 nM
21,"C[C@@H](Cn1cnnn1)Oc1cc(-c2cnc(Nc3cn(C4CCN(CCO)CC4)nc3C(F)(F)F)nc2)ccc1Cl [Example 535, (S)-2-(4-(4-((5-(3-((1-(1H-tetrazol-1-yl)propan-2-yl)oxy)-4-chlorophenyl)pyrimidin-2-yl)amino)-3-(trifluoromethyl)-1H-pyrazol-1-yl)piperidin-1-yl)ethan-1-ol]",< 10 nM
22,"C[C@@H](Cn1cnnn1)Oc1cc(-c2cnc(Nc3cn(C4CCN(CC#N)CC4)nc3C(F)(F)F)nc2)ccc1Cl [Example 536, (S)-2-(4-(4-((5-(3-((1-(1H-tetrazol-1-yl)propan-2-yl)oxy)-4-chlorophenyl)pyrimidin-2-yl)amino)-3-(trifluoromethyl)-1H-pyrazol-1-yl)piperidin-1-yl)acetonitrile]",10 to 100 nM
23,"C[C@@H](Cn1cnnn1)Oc1cc(-c2cnc(Nc3cc(N4CCC(N5CCOCC5)CC4)ncc3OC(F)(F)F)nc2)ccc1Cl [Example 537, (S)-5-(3-((1-(1H-tetrazol-1-yl)propan-2-yl)oxy)-4-chlorophenyl)-N-(2-(4-morpholinopiperidin-1-yl)-5-(trifluoromethoxy)pyridin-4-yl)pyrimidin-2-amine]",< 10 nM
24,"C[C@@H](Cn1cnnn1)Oc1cc(-c2cnc(Nc3cc4c(cc3Cl)CCN(C3CCOCC3)CC4)nc2)ccc1C#N [Example 538, (S)-2-((1-(1H-tetrazol-1-yl)propan-2-yl)oxy)-4-(2-((8-chloro-3-(tetrahydro-2H-pyran-4-yl)-2,3,4,5-tetrahydro-1H-benzo[d]azepin-7-yl)amino)pyrimidin-5-yl)benzonitrile]",< 10 nM
25,"C[C@@H](Cn1cnnn1)Oc1cc(-c2cnc(Nc3cc4c(cc3Cl)CCN(C3COC3)CC4)nc2)ccc1C#N [Example 539, (S)-2-((1-(1H-tetrazol-1-yl)propan-2-yl)oxy)-4-(2-((8-chloro-3-(oxetan-3-yl)-2,3,4,5-tetrahydro-1H-benzo[d]azepin-7-yl)amino)pyrimidin-5-yl)benzonitrile]",< 10 nM
26,"COc1ccc(C(=O)O)cc1Nc1ncc(-c2ccc(Cl)c(O[C@@H](C)Cn3cnnn3)c2)cn1 [Example 540, (S)-3-((5-(3-((1-(1H-tetrazol-1-yl)propan-2-yl)oxy)-4-chlorophenyl)pyrimidin-2-yl)amino)-4-methoxybenzoic acid]",≥ 100 nM
